Values quoted from earlier work as cited in patent publication US20120220630A1, “PRUCALOPRIDE ORAL SOLUTION” (Shire-Movetis NV, priority 2011, published 2012).

Key:
5-HT2A receptors = 5-HT2A receptors (Homo sapiens, UniProt P28223)
[1] = tested on: colonic motility and defecation; conditions: in animals
5-HT4 receptors = 5-HT4 receptors (Homo sapiens, UniProt Q13639)
5-HT4 receptors, sequence (Q13639 whole entry): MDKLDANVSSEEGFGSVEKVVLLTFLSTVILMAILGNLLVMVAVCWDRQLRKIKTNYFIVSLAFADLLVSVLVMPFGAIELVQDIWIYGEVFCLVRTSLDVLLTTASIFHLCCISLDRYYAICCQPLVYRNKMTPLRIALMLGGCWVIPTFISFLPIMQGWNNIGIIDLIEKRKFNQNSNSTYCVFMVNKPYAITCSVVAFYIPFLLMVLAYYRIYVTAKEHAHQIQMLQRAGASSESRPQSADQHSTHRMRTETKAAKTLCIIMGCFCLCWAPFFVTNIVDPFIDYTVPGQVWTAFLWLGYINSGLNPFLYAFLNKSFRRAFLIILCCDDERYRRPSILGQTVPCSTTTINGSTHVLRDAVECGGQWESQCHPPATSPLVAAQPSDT

5-HT2A receptors, sequence (P28223 whole entry): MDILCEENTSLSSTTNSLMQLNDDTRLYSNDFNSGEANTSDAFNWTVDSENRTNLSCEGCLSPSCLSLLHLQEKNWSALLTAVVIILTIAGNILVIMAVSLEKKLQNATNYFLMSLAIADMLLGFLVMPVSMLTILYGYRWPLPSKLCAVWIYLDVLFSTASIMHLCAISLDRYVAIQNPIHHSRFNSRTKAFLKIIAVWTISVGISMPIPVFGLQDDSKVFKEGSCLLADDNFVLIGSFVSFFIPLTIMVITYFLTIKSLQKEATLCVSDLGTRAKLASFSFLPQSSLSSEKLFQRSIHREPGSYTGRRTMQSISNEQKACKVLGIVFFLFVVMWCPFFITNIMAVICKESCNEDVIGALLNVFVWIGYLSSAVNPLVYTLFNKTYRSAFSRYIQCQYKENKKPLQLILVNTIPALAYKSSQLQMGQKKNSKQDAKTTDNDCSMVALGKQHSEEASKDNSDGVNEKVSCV

COCCCN1CCC(NC(=O)c2cc(Cl)c(N)c3c2OCC3)CC1 [Prucalopride, 4-amino-5-chloro-2,3-dihydro-N-[1-(3-methoxypropyl)-4-piperidinyl]-7-benzofuran-carboxamide]
affinity for 5-HT2A receptors (5-HT2A receptors): no affinity | colonic motility and defecation [1]: stimulates colonic motility and defecation | affinity for 5-HT3 receptors (5-HT3 receptors): no affinity | agonism of 5-HT4 receptors (5-HT4 receptors): potent and selective agonist
